Source: patent publication US9617330B2, “Chemorepulsion of cells” (Celtaxsys, Inc., priority 2006, dated 2017)

What was measured:
[1] = test system: Human primary CD4+ lymphocytes; test: Trans-well migration assay (Example 3 method), unimodal fugetaxin test; format: cell-based; parameters: key: A “+” in the Table indicates a positive hit as a unimodal fugetaxin, as that term is defined herein, for that particular cell type; conditions: methods of Example 3
[2] = test system: Human primary neutrophils; test: as above; format: cell-based; parameters: key to Unimodal fugetaxin hit, Neutrophils: A “+” in the Table indicates a positive hit as a unimodal fugetaxin, as that term is defined herein, for that particular cell type; conditions: for Unimodal fugetaxin hit, Neutrophils: human neutrophils, methods of Example 3
[3] = test system: Eo-HL60 (HL-60 clone 15 differentiated to eosinophil-like phenotype); test: Trans-well migration assay (Example 1), net migratory response; format: cell-based, human; conditions: net observed response
Monocyte = test: as above; conditions: Monocyte; net observed response
Procedure: (§5) Prior to beginning the assay 0.5% Fetal Calf Serum (FCS) in Iscove's Modified Dulbecco's Medium (IMDM) is prepared and stored on ice (Assay Medium). Migratory cells at a concentration of 2×10^7 cells/ml are suspended in Assay Medium. T-cells isolated from donor blood or buffy coats are allowed to rest overnight in Assay Medium at 37° C. in 5% CO2. Neutrophils, monocytes and B cells are utilized as soon as they are purified from donor blood or other source of human origin. Four serial (10×) dilutions of the ligand are then prepared in Assay Medium (normally 10 μg/ml to 0.01 μg/ml).
(§6) Plates are removed from the packaging, leaving the membrane behind and intact. The membrane is set aside. Into each well is pipetted 31 μl of solution. For media controls and fugetaxis (chemorepellent) samples, Assay Medium is used. For chemoattraction samples, the appropriate dilution of agent in assay medium is used.
(§7) Using a sterile needle, all small bubbles present in each well are popped and the membrane is carefully placed onto the plate, starting at one side and slowly lowering the other edge onto the plate.
(§8) Then 29 μl is pipetted into each circle imprinted on the polycarbonate or polyester membrane. For media controls and chemoattraction samples, Assay Medium is used. For fugetaxis (chemorepellent) samples, the appropriate dilution of ligand in assay medium is used.
(§9) To each 29 uL aliquot above is added 2 μl of cells (40,000 cells). It is important to ensure that before beginning the cells are well suspended and that they are mixed. This mixing can be accomplished by agitating the tube between each addition.
(§10) The plate is then covered with the supplied lid and incubated 1-3 hours in a humidified incubator at 37° C. in 5% CO2. Following the incubation period, the liquid from the top of the plate is removed with a tissue or similar blotting material (e.g. a Kimwipe). The membrane is carefully removed from the top of the plate and discarded. […] Using a multichannel pipettor, each well of the microplate is rinsed with 25 μl Phosphate Buffered Saline (Mediatech #21-040-CV) and transferred to the same wells in the white microplate. Using a multichannel pipettor, 50 μl CellTiter-Glo Luminescent Cell Viability Assay (Promega #G7572) is added to each well and mixed.
(§11) The plate is read using the Perkin Elmer Victor^3V plate reader using the Large Aperture Luminescence setting at 8 mm height above the plate with a dwell time of 1 s to quantify the number of migrated cells.
(§12) The results reported reflect the net observed migratory response of the cells to the ligand and are not based on the definition of unimodal fugetaxins.

B cells = test: High throughput transmigration assay (Example 9), chemorepulsion; format: cell-based, human; parameters: key: ratio of chemorepulsion (CR) to spontaneous migration (SM), CR/SM
From the text: (§1) An agent's repellent index is the ratio of chemorepulsion (CR) to spontaneous migration (SM) induced by the agent, i.e., [(CR)/(SM)]. […] For example, in calculating a RI for an agent, migratory responses including chemorepulsion (CR) and spontaneous migration (SM) may be measured over several decades or log scales of concentration. If, over any two consecutive measurements at concentrations which differ by at least 10 fold, the ratio of CR to SM at each of the two contiguous measurements is equal to or greater than 1.2, then the agent is considered a validated chemorepellent.
(§2) For primary human T cells, up to 80 ml of blood is drawn from a human donor in sodium heparin Vacutainer tubes (Becton-Dickinson). The blood (between 10 and 15 ml per tube) is then layered onto 30 ml of Lymphocyte Separation Medium (LSM) (Cellgro, Herndon, Va.) in a 50 ml conical centrifuge tube and centrifuged for 20 minutes at 2440×g in a swinging bucket rotor. After removing the majority of the plasma from the top of each tube, the peripheral blood mononucleocyte (PBMC) layer is removed and transferred to fresh 50 ml conical centrifuge tubes. The tubes are then filled to 50 ml with IMDM and centrifuged for 10 minutes at 500×g. All but approximately 5 ml of the supernatant is then removed and the pellet resuspended with 25 ml IMDM and the centrifugation repeated. After removal of the supernatant, the cells are resuspended and combined to one 50 ml tube (per subject) and brought to a total volume of 50 ml. The cells are then counted using a hemacytometer (Reichert). After centrifugation under the same conditions, the supernatant is removed and the cells processed using the appropriate Miltenyi Biotec (Auburn, Calif.) negative selection kit to enrich for the desired cell type according to manufacturers instructions. The resulting purified cells are then diluted to 50 ml with IMDM. After centrifugation at 500×g for 10 minutes, the supernatant is removed and the cells resuspended in 15 ml IMDM supplemented with 0.5% heat inactivated fetal calf serum (FCS) (ATCC, Manassas, Va.). After another centrifugation for 10 minutes at 500×g, the supernatant is again removed and the cells resuspended in 7 ml 0.5% FCS in IMDM (assay medium) and transferred to a 15 ml conical centrifuge tube. The cells are then quantitated using a hemacytometer. When enriching for monocytes, the concentration of cells is adjusted to 2×10^7 per ml by centrifugation and removal of the appropriate volume of assay medium. For all other cell types, the tube cap is replaced with one from a 25 cm^2 tissue culture flask (Corning) and the cells stored overnight in a humidified 37° C. incubator with 5% CO2. The concentration of the cells is adjusted as for monocytes just prior to transmigration assay of Example 9.
(§3) Migration away from a chemical or biological agent (chemorepulsion (CR)) was measured using ChemoTx plates (Neuroprobe). These plates contain a planar polycarbonate or polyester membrane that has been etched and perforated so that cells can move along the etched tracks and fall through perforation holes, enabling the cells to be collected and the number of migrated cells quantified (FIGS. 5-6). Several dilutions (normally 4 in 10-fold increments) are prepared of the agent of interest. For neutrophils, plates with 3 μm pore membranes are used, while for all other primary cell types, 5 μm pore membranes are used. Membranes may, or may not, be coated with polyvinylpyrrolidine (PVP) as a wetting agent.
(§4) For spontaneous migration controls and chemorepulsion (CR) assays, 31 μl of assay medium is pipetted into the lower well of the transmigration apparatus (FIGS. 5-6). For spontaneous migration controls and chemoattraction (CA) assays, 29 μl of assay medium is pipetted into upper chamber of the transmigration apparatus (FIG. 5). For CR, the upper well assay medium contains the agent or candidate chemorepellent. […]

Neutrophils = test: as above; format: cell-based, human
B-cell = test: Trans-well migration assay (Example 1), net migratory response; conditions: net observed response
Procedure: as §5, §6, §7, §8, §9, §10, §11, §12

CD8+ = test: High throughput transmigration assay (Example 9), chemorepulsion; format: cell-based, human; conditions: mean of three donors at concentration of highest activity
From the text: as §1, §2, §3, §4

[4] = mean of three donors at concentration of highest activity, range 0.00125-1.25 μM
[5] = Neutrophils, mean of three donors at concentration of highest activity, range 0.00125-1.25 μM

CC(C)Cn1cnc2c(N)nc3ccccc3c21 [Imiquimod, reference compound]
Unimodal fugetaxin hit, CD4+ [1]: + | Unimodal fugetaxin hit, Neutrophils [2]: + | Migratory Response [3]: chemorepulsion | Migratory Response (Monocyte): chemorepulsion

CCL11: chemokine
Repellent Index (B cells; [4]): 2.1

CXCL1: chemokine
Repellent Index (Neutrophils; [5]): 2.6 | Repellent Index (B cells; [4]): 1.3

Galectin-1: carbohydrate binding protein (galectin), full-length, purchased; accession P09382
Migratory Response [3]: chemorepulsion | Repellent Index (Neutrophils; [5]): 2.3 | Repellent Index (Neutrophils; neutrophils, 0.00125 μM, one donor, triplicate, ± SD): 0.80 ± 0.08 | Repellent Index (Neutrophils; neutrophils, 0.0125 μM, one donor, triplicate, ± SD): 0.96 ± 0.22 | Repellent Index (Neutrophils; neutrophils, 0.125 μM, one donor, triplicate, ± SD): 1.05 ± 0.14 | Repellent Index (Neutrophils; neutrophils, 1.25 μM, one donor, triplicate, ± SD): 3.70 ± 0.29 | Migratory Response (Monocyte): chemorepulsion

HSP27: heat shock protein; accession G01523/AAA62175
Unimodal fugetaxin hit, Neutrophils [2]: + | Migratory Response [3]: chemorepulsion | Repellent Index (Neutrophils; [5]): 4.4 | Migratory Response (Monocyte): chemorepulsion

HSP40 Human: heat shock protein; accession BAA08495
Migratory Response [3]: chemorepulsion | Repellent Index (Neutrophils; [5]): 1.4 | Migratory Response (Monocyte): chemorepulsion

HSP60: heat shock protein
Unimodal fugetaxin hit, CD4+ [1]: + | Unimodal fugetaxin hit, Neutrophils [2]: + | Migratory Response [3]: chemorepulsion

HSP90: heat shock protein; accession NP_005339.2 and others
Unimodal fugetaxin hit, CD4+ [1]: + | Unimodal fugetaxin hit, Neutrophils [2]: + | Migratory Response [3]: chemorepulsion | Repellent Index (Neutrophils; [5]): 1.7

IL8: interleukin-8
chemotactic (chemoattractant) versus fugetactic (chemorepellent) response of neutrophils ([2]; neutrophils, 1 hour, FIGS. 3 and 4, at 10 uM where stated): over twice as chemotactic (chemoattractant) as fugetactic (chemorepellent)

Poly(I:C) [reference compound]
Migratory Response [3]: chemorepulsion | Repellent Index (Neutrophils; Neutrophils, mean of three donors at concentration of highest activity, range 0.01-10 μg/ml): 1.4 | Migratory Response (Monocyte): chemorepulsion | Migratory Response (B-cell): chemorepulsion

B1: Semaphorin 3F: semaphorin (protein, UniProt Q13275 19-785, looked up)
Semaphorin-3F: SFPTQDHLPATPRVRLSFKELKATGTAHFFNFLLNTTDYRILLKDEDHDRMYVGSKDYVLSLDLHDINREPLIIHWAASPQRIEECVLSGKDVNGECGNFVRLIQPWNRTHLYVCGTGAYNPMCTYVNRGRRAQATPWTQTQAVRGRGSRATDGALRPMPTAPRQDYIFYLEPERLESGKGKCPYDPKLDTASALINEELYAGVYIDFMGTDAAIFRTLGKQTAMRTDQYNSRWLNDPSFIHAELIPDSAERNDDKLYFFFRERSAEAPQSPAVYARIGRICLNDDGGHCCLVNKWSTFLKARLVCSVPGEDGIETHFDELQDVFVQQTQDVRNPVIYAVFTSSGSVFRGSAVCVYSMADIRMVFNGPFAHKEGPNYQWMPFSGKMPYPRPGTCPGGTFTPSMKSTKDYPDEVINFMRSHPLMYQAVYPLQRRPLVVRTGAPYRLTTIAVDQVDAADGRYEVLFLGTDRGTVQKVIVLPKDDQELEELMLEEVEVFKDPAPVKTMTISSKRQQLYVASAVGVTHLSLHRCQAYGAACADCCLARDPYCAWDGQACSRYTASSKRRSRRQDVRHGNPIRQCRGFNSNANKNAVESVQYGVAGSAAFLECQPRSPQATVKWLFQRDPGDRRREIRAEDRFLRTEQGLLLRALQLSDRGLYSCTATENNFKHVVTRVQLHVLGRDAVHAALFPPLSMSAPPPPGAGPPTPPYQELAQLLAQPEVGLIHQYCQGYWRHVPPSPREAPGAPRSPEPQDQKKPRNRRHHPPDT
Repellent Index (Neutrophils; Neutrophils, mean of three donors at concentration of highest activity, range 0.01-10 μM): 1.8 | Repellent Index (CD8+; range 0.01-10 μM): 1.3

B2: Semaphorin 3A: semaphorin (protein, UniProt Q14563 21-771, looked up)
Semaphorin-3A: NYQNGKNNVPRLKLSYKEMLESNNVITFNGLANSSSYHTFLLDEERSRLYVGAKDHIFSFDLVNIKDFQKIVWPVSYTRRDECKWAGKDILKECANFIKVLKAYNQTHLYACGTGAFHPICTYIEIGHHPEDNIFKLENSHFENGRGKSPYDPKLLTASLLIDGELYSGTAADFMGRDFAIFRTLGHHHPIRTEQHDSRWLNDPKFISAHLISESDNPEDDKVYFFFRENAIDGEHSGKATHARIGQICKNDFGGHRSLVNKWTTFLKARLICSVPGPNGIDTHFDELQDVFLMNFKDPKNPVVYGVFTTSSNIFKGSAVCMYSMSDVRRVFLGPYAHRDGPNYQWVPYQGRVPYPRPGTCPSKTFGGFDSTKDLPDDVITFARSHPAMYNPVFPMNNRPIVIKTDVNYQFTQIVVDRVDAEDGQYDVMFIGTDVGTVLKVVSIPKETWYDLEEVLLEEMTVFREPTAISAMELSTKQQQLYIGSTAGVAQLPLHRCDIYGKACAECCLARDPYCAWDGSACSRYFPTAKRRTRRQDIRNGDPLTHCSDLHHDNHHGHSPEERIIYGVENSSTFLECSPKSQRALVYWQFQRRNEERKEEIRVDDHIIRTDQGLLLRSLQQKDSGNYLCHAVEHGFIQTLLKVTLEVIDTEHLEELLHKDDDGDGSKTKEMSNSMTPSQKVWYRDFMQLINHPNLNTMDEFCEQVWKRDRKQRRQRPGHTPGNSNKWKHLQENKKGRNRRTHEFERAPRSV
Repellent Index (CD8+; range 0.01-10 μM): 1.3 | Repellent Index (B cells; 0.00125 μM, one donor, triplicate, ± SD): 1.87 ± 0.40 | Repellent Index (B cells; 0.0125 μM, one donor, triplicate, ± SD): 2.07 ± 0.52 | Repellent Index (B cells; 0.125 μM, one donor, triplicate, ± SD): 2.39 ± 0.71 | Repellent Index (B cells; 1.25 μM, one donor, triplicate, ± SD): 2.16 ± 0.28 | Repellent Index (B cells; mean of three donors at concentration of highest activity, range 0.01-10 μM): 1.6

B3: CCL27: chemokine (protein, UniProt Q9Y4X3 25-112, looked up)
C-C motif chemokine 27: FLLPPSTACCTQLYRKPLSDKLLRKVIQVELQEADGDCHLQAFVLHLAQRSICIHPQNPSLSQWFEHQERKLHGTLPKLNFGMLRKMG
Repellent Index (B cells; [4]): 1.4

B4: Cathespin G, Human Neutrophil: Cathespin G, Human Neutrophil (protein, UniProt P08311 21-244, looked up)
Cathepsin G: IIGGRESRPHSRPYMAYLQIQSPAGQSRCGGFLVREDFVLTAAHCWGSNINVTLGAHNIQRRENTQQHITARRAIRHPQYNQRTIQNDIMLLQLSRRVRRNRNVNPVALPRAQEGLRPGTLCTVAGWGRVSMRRGTDTLREVQLRVQRDRQCLRIFGSYDPRRQICVGDRRERKAAFKGDSGGPLLCNNVAHGIVSYGKSSGVPPEVFTRVSSFLPWIRTTMRS
Migratory Response [3]: chemorepulsion | Migratory Response (Monocyte): chemorepulsion | Migratory Response (B-cell): chemorepulsion

B5: Galectin-2: carbohydrate binding protein (galectin), full-length, purchased; accession P05162 (protein, UniProt P05162 1-132, looked up)
chain: MTGELEVKNMDMKPGSTLKITGSIADGTDGFVINLGQGTDKLNLHFNPRFSESTIVCNSLDGSNWGQEQREDHLCFSPGSEVKFTVTFESDKFKVKLPDGHELTFPNRLGHSHLSYLSVRGGFNMSSFKLKE
modifications: full-length
Migratory Response [3]: chemorepulsion | Repellent Index (CD8+; range 0.00125-1.25 μM): 1.5
